Where two headings read alike, the source gives them in different places.
How the values were obtained:
Assay in all cases: biochemical
Format in all cases: binding
[1] = biological target: T1, cellular kinases of SH-SY5Y cells (Homo sapiens, UniProt O75063); details: 2µM; SH-SY5Y cells; Labeling Site ATP; ETEPACADGDIMEGSVTLWLPDVWPLQKHR; read-out: KiNativ in-cell binding, % Inhibition, FAM20B
T1 construct: endogenous in cells; host or cells: SH-SY5Y
Text: (§1) As KINOMEscan is an in vitro assay, and as different cell types have variable kinase expression profiles we sought to determine the kinase binding profile in our SH-SY5Y TFEB-relocalization cell model. […] Bound kinases were pulled down and analyzed by mass spectrometry to determine the in situ kinase binding profile for each compound.

[2] = biological target: cellular kinases of SH-SY5Y cells (Homo sapiens, UniProt P00533); details: 2µM, SH-SY5Y cells, read-out: KiNativ in-cell binding, % Inhibition, EGFR, EGFR-L858R
cellular kinases of SH-SY5Y cells (Homo sapiens, UniProt P00533), sequence (P00533 25-1210): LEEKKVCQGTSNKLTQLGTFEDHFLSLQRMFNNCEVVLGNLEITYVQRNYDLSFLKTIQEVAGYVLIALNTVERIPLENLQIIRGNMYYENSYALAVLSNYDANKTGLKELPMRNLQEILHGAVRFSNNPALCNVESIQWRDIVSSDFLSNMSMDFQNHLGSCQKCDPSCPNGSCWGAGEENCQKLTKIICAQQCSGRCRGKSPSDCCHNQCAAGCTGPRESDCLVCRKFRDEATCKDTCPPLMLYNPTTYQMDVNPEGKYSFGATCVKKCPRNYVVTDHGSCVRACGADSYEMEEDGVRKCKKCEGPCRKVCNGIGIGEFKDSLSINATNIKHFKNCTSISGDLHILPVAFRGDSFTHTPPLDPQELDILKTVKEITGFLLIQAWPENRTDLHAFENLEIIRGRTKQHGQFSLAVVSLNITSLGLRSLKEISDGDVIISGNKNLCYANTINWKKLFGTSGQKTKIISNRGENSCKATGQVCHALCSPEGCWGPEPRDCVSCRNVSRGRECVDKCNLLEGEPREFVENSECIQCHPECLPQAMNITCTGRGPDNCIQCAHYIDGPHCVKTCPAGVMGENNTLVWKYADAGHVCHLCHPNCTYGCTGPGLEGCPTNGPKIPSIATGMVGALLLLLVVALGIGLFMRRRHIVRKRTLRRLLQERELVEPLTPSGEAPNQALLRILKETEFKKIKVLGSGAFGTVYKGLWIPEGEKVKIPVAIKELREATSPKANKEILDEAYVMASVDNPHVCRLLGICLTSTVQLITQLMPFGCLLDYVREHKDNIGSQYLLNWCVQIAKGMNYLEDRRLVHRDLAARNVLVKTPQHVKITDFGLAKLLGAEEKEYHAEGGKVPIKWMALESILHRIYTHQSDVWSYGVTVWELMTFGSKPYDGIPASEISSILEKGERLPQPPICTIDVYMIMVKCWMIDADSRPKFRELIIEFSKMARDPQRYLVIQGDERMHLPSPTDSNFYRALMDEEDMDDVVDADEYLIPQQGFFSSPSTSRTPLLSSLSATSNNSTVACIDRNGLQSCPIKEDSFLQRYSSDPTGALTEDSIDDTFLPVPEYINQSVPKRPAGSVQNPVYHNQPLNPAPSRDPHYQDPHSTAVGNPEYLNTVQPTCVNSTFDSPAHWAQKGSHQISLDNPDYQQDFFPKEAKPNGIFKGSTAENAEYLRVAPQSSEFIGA
Text: as §1

[3] = biological target: cellular kinases of SH-SY5Y cells (Homo sapiens, UniProt P07332); details: 2µM; SH-SY5Y cells; Labeling Site Lys1; LRADNTLVAVKSCR; read-out: KiNativ in-cell binding, % Inhibition, FES
Text: as §1

[4] = biological target: cellular kinases of SH-SY5Y cells (Homo sapiens, UniProt P11802); details: 2µM; SH-SY5Y cells; Labeling Site Lys2; DLKPENILVTSGGTVK; read-out: KiNativ in-cell binding, % Inhibition, CDK4
Text: as §1

[5] = biological target: T2, cellular kinases of SH-SY5Y cells (Homo sapiens, UniProt P23458); details: 2µM, SH-SY5Y cells
T2 construct: endogenous in cells; host or cells: SH-SY5Y
T2 sequence (P23458 whole entry): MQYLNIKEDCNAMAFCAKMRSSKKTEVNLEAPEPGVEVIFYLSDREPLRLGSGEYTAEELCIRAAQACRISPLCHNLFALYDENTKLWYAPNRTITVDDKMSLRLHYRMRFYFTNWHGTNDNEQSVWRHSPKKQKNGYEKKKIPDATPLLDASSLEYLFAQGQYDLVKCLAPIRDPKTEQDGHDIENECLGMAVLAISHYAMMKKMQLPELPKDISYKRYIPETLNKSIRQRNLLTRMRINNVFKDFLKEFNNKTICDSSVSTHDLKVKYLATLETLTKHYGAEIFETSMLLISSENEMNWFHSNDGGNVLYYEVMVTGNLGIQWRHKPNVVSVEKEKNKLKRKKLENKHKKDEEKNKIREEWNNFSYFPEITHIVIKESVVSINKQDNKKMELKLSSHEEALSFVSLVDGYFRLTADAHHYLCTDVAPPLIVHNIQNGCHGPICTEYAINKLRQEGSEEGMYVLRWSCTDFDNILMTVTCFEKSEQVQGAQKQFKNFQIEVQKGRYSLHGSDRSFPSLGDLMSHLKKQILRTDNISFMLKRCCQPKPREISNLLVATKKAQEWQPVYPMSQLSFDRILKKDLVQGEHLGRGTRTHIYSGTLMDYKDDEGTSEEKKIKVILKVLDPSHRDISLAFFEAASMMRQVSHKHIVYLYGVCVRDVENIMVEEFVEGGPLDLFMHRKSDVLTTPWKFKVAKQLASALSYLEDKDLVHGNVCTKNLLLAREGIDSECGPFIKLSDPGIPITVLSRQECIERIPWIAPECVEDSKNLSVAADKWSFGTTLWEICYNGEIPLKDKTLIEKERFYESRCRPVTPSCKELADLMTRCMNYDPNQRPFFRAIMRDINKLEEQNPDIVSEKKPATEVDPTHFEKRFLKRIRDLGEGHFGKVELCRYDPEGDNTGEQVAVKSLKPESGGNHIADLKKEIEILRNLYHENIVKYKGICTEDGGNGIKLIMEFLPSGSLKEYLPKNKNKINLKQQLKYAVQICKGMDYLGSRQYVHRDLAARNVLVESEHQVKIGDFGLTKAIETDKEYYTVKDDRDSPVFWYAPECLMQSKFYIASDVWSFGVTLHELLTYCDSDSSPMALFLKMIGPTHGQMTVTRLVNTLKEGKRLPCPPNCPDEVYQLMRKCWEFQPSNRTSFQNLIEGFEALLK
Text: as §1

[6] = biological target: cellular kinases of SH-SY5Y cells (Homo sapiens, UniProt P42338); details: 2µM; SH-SY5Y cells; Labeling Site ATP; VFGEDSVGVIFKNGDDLRQDMLTLQMLR; read-out: KiNativ in-cell binding, % Inhibition, PIK3CB
Text: as §1

[7] = biological target: cellular kinases of SH-SY5Y cells (Homo sapiens, UniProt P43405)
Text: as §1

[8] = biological target: T3, cellular kinases of SH-SY5Y cells (Homo sapiens, UniProt P46734); details: 2µM, SH-SY5Y cells
T3 sequence (P46734 1-347): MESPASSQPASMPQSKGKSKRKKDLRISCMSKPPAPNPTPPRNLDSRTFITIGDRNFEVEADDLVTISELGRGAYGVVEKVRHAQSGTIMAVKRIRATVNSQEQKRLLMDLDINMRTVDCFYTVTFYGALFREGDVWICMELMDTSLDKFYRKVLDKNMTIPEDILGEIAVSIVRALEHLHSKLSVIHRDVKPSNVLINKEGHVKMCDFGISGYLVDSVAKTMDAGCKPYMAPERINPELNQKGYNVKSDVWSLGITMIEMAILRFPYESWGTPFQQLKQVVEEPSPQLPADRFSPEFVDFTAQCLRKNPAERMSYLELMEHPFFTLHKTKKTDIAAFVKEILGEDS
Text: as §1

[9] = biological target: cellular kinases of SH-SY5Y cells (Homo sapiens, UniProt P49841); details: read-out: KiNativ in-cell binding, % Inhibition, GSK3B
Text: as §1

[10] = biological target: cellular kinases of SH-SY5Y cells (Homo sapiens, UniProt P51617); details: 2µM; SH-SY5Y cells; labeling site Lys2; peptide AIQFLHQDSPSLIHGDIKSSNVLLDER
Text: as §1

[11] = biological target: cellular kinases of SH-SY5Y cells (Homo sapiens, UniProt Q05397); details: 2µM, SH-SY5Y cells, read-out: KiNativ in-cell binding, % Inhibition, PTK2/FAK
cellular kinases of SH-SY5Y cells (Homo sapiens, UniProt Q05397), sequence (Q05397 whole entry): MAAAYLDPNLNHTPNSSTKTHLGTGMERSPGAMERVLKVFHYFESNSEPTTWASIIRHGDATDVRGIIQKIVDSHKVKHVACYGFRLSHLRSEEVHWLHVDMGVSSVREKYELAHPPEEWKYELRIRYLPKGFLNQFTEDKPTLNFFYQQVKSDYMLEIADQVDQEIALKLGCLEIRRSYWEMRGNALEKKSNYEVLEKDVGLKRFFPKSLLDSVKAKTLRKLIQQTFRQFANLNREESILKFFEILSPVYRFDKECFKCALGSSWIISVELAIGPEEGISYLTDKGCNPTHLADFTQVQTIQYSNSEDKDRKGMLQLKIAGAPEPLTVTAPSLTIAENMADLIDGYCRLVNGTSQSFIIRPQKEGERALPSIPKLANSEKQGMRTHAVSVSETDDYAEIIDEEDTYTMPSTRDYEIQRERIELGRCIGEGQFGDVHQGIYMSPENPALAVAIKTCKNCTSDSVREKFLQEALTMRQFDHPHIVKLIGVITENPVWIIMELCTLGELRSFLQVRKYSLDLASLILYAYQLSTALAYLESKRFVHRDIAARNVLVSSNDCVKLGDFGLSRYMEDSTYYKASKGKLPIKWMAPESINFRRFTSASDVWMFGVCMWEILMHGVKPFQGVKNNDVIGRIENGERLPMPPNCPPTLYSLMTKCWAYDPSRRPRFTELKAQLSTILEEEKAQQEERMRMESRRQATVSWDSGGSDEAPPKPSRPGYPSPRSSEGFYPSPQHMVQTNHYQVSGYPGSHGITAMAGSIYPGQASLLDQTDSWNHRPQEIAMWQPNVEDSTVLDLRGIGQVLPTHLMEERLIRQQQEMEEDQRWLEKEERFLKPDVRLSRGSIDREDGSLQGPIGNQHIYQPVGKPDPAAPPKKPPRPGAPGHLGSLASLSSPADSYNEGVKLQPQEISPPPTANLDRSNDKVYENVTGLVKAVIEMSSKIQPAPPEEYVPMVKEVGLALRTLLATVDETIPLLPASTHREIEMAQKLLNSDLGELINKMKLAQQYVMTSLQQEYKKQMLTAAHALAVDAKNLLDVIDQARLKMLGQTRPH
Text: as §1

[12] = biological target: cellular kinases of SH-SY5Y cells (Homo sapiens, UniProt Q13555); details: 2µM; SH-SY5Y cells; Labeling Site Lys1; TSTQEYAAKIINTK; read-out: KiNativ in-cell binding, % Inhibition, CaMK2g
Text: as §1

[13] = biological target: T4, cellular kinases of SH-SY5Y cells (Homo sapiens, UniProt Q86UX6); details: 2µM; SH-SY5Y cells; Labeling Site Lys2; DVKPDNILLDER; read-out: KiNativ in-cell binding, % Inhibition, STK32C/YANK3
T4 construct: endogenous in cells; host or cells: SH-SY5Y
Text: as §1

[14] = biological target: cellular kinases of SH-SY5Y cells (Homo sapiens, UniProt Q96RR4); details: 2µM, SH-SY5Y cells
cellular kinases of SH-SY5Y cells (Homo sapiens, UniProt Q96RR4), sequence (Q96RR4 whole entry): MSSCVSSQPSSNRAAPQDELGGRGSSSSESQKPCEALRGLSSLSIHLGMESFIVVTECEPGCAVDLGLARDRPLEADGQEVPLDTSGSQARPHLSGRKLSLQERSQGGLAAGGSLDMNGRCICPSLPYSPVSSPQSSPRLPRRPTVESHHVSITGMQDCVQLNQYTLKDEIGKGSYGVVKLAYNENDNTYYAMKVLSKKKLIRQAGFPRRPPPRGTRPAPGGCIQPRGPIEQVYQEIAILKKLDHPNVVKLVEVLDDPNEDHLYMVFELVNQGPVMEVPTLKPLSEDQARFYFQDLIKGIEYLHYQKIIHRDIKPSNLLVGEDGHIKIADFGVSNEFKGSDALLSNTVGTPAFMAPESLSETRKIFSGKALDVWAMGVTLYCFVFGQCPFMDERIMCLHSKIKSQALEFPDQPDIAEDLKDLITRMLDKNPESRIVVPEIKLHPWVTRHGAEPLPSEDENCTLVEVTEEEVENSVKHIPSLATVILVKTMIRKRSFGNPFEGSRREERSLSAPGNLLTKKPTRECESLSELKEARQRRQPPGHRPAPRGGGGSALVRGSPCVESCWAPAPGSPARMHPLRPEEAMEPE
Text: as §1

[15] = biological target: cellular kinases of SH-SY5Y cells (Homo sapiens, UniProt Q99759); details: 2µM; SH-SY5Y cells; Labeling Site Lys1; ELASKQVQFDPDSPETSKEVSALECEIQLLK; read-out: KiNativ in-cell binding, % Inhibition, MAP3K3
cellular kinases of SH-SY5Y cells (Homo sapiens, UniProt Q99759), sequence (Q99759 whole entry): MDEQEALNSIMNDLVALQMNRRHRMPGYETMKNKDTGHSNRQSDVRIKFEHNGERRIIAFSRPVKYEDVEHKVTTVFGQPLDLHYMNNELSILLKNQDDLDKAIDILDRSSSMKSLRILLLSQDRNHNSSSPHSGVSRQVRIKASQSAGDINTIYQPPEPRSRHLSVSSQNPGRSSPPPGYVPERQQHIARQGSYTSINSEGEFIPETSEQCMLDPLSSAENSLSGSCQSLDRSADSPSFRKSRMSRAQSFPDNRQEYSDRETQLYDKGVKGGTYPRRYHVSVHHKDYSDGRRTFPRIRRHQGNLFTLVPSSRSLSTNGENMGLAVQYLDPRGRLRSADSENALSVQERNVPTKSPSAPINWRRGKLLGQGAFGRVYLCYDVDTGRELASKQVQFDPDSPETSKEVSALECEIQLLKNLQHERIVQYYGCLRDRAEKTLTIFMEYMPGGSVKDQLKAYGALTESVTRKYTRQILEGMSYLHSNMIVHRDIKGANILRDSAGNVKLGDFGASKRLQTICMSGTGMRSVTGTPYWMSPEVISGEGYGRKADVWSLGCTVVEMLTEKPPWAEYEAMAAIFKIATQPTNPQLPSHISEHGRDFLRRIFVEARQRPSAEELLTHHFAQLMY
Text: as §1

[16] = biological target: cellular kinases of SH-SY5Y cells (Homo sapiens, UniProt Q9NWZ3); details: 2µM, SH-SY5Y cells
cellular kinases of SH-SY5Y cells (Homo sapiens, UniProt Q9NWZ3), sequence (Q9NWZ3 whole entry): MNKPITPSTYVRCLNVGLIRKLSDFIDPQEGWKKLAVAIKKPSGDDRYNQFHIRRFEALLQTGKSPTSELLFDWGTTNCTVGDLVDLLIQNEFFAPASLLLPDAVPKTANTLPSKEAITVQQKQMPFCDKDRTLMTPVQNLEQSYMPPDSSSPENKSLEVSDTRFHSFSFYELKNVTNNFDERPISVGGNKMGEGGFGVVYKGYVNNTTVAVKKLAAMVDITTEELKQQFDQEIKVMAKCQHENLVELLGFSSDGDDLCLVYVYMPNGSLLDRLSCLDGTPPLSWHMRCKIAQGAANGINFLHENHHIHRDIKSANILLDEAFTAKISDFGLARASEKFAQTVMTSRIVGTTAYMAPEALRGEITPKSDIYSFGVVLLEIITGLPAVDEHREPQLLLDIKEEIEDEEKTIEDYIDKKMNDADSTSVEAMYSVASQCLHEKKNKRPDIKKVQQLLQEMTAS
Text: as §1

[17] = biological target: T5, cellular kinases of SH-SY5Y cells (Homo sapiens, UniProt Q9NYL2); details: 2µM; SH-SY5Y cells; Labeling Site Lys1; WISQDKEVAVKK; read-out: KiNativ in-cell binding, % Inhibition, MAP3K20/ZAK
T5 construct: endogenous in cells; host or cells: SH-SY5Y
Text: as §1

## Cc1cccc(-c2nc(Nc3ccc4ncsc4c3)c3ccccc3n2)n1 [NK140]
[1]
  inhibition at 2 µM: -39.2%
[2]; Labeling Site Activation Loop, LLGAEEKEYHAEGGKVPIK
  inhibition at 2 µM: 33.5%
[2]; Labeling Site Lys1, IPVAIKELR
  inhibition at 2 µM: 14.4%
[3]
  inhibition at 2 µM: 17.1%
[4]
  inhibition at 2 µM: -19.8%
[5]; Labeling Site Lys1, YDPEGDNTGEQVAVKSLKPESGGNHIADLKK, read-out: KiNativ in-cell binding, % Inhibition, JAK1 domain2
  inhibition at 2 µM: 2.4%
[5]; labeling site Activation Loop, peptide IGDFGLTKAIETDKEYYTVK
  KiNativ in-cell binding, JAK1 domain2: -56.1
[6]
  inhibition at 2 µM: -11.4%
[7]
  KiNativ in-cell binding, SYK: -121.1
[7]; 2µM, SH-SY5Y cells, Labeling Site Activation Loop, AQTHGKWPVK, read-out: KiNativ in-cell binding, % Inhibition, SYK
  inhibition at 2 µM: 0.443%
[7]; 2µM, SH-SY5Y cells, labeling site Activation Loop, peptide ISDFGLSKALR
  KiNativ in-cell binding, SYK: -15.0
[8]; Labeling Site Activation Loop, MCDFGISGYLVDSVAKTMDAGCKPYMAPER, read-out: KiNativ in-cell binding, % Inhibition, MAP2K3
  inhibition at 2 µM: 2.5%
[8]; labeling site Lys1, peptide HAQSGTIMAVKR
  KiNativ in-cell binding, MAP2K3: -144.3
[8]; labeling site Lys2, peptide DVKPSNVLINK
  KiNativ in-cell binding, MAP2K3: -182.7
[9]
  inhibition at 2 µM: 15.8%
[10]
  KiNativ in-cell binding, IRAK1: -26.5
[11]; Labeling Site Activation Loop, YMEDSTYYKASK
  inhibition at 2 µM: 16.9%
[11]; Labeling Site Lys1, CIGEGQFGDVHQGIYMSPENPALAVAIKTCK
  inhibition at 2 µM: 18%
[12]
  inhibition at 2 µM: 30.4%
[13]
  inhibition at 2 µM: -34.7%
[14]; Labeling Site Lys1, LAYNENDNTYYAMKVLSK, read-out: KiNativ in-cell binding, % Inhibition, CaMKK2
  inhibition at 2 µM: -64%
[14]; labeling site Lys2, peptide DIKPSNLLVGEDGHIK
  KiNativ in-cell binding, CaMKK2: -31.8
[15]
  inhibition at 2 µM: 12.5%
[16]; Labeling Site Lys1, GYVNNTTVAVKK, read-out: KiNativ in-cell binding, % Inhibition, IRAK4
  inhibition at 2 µM: -5.5%
[16]; labeling site Lys2, peptide DIKSANILLDEAFTAK
  KiNativ in-cell binding, IRAK4: -14.3
[17]
  inhibition at 2 µM: -2%

— PMC9851200, “Multiparameter phenotypic screening for endogenous TFEB and TFE3 translocation identifies novel chemical series modulating lysosome function” (Autophagy, 2022)
